Assay results as given in article PMC6112376, “Comprehensive Analyses and Prioritization of Tox21 10K Chemicals Affecting Mitochondrial Function by in-Depth Mechanistic Studies” (Environmental Health Perspectives, 2018).
Read-outs that look alike come from different tables or passages of the source.

Assays:
rat primary hepatocytes [1] = tested on: rat primary hepatocytes
HepG2 cells [2] = conditions: cited from earlier work
HepG2 cells [3] = assay: cells; conditions: Homo sapiens; for IC50: HepG2, read-out: MMP assays IC50 (µM) HepG2; for Emax: HepG2, read-out: MMP assays efficacy (%) HepG2
rat primary hepatocytes [4] = assay: MMP assay in rat primary hepatocytes; conditions: for IC50: Rattus norvegicus, Hepatocyte, read-out: MMP assays IC50 (µM) Rat Hepatocytes
[5] = read-out: MMP assays IC50 (µM) qHTS-HepG2
[6] = read-out: MMP assays IC50 (µM), qHTS-HepG2

Compound	MMP assays efficacy (%) Rat Hepatocytes (rat primary hepatocytes [1])	MMP assays efficacy (%) qHTS-HepG2 (HepG2 cells [2])	IC50 (HepG2 cells [2]; [5])	IC50 (HepG2 cells [3])	Emax (HepG2 cells [3])	IC50 (rat primary hepatocytes [4])	IC50 (HepG2 cells [2]; [6])	MMP assays IC50 (µM) Rat Hepatocytes (rat primary hepatocytes [4])
Nc1ccc(Cl)cc1N [4-Chloro-1,2-diaminobenzene]	-88±17%	-94±12%	2.38 ± 1.6 µM	2 µM	90%	11 ± 4.37 µM		
CC(C)[C@@H](Nc1ccc(C(F)(F)F)cc1Cl)C(=O)OC(C#N)c1cccc(Oc2ccccc2)c1 (some centres unmarked) [tau-Fluvalinate]	inactive			31.6 µM	58%		37.2 ± 15.1 µM	inactive
CN1C(C(=O)Nc2ccccn2)=C(O)c2sccc2S1(=O)=O [Tenoxicam]	-65±17%	-83±17%		6.6 µM	69%	4.23 ± 3.79 µM	8.36 ± 1.07 µM	
Oc1ccc(Cl)c(Cl)c1Cl [2,3,4-Trichlorophenol]	-59±36%	-101±8%	5.23 ± 1.52 µM	7.94 µM	101%	41.8 ± 14.4 µM		
COc1cccc2c1C(=O)c1c(O)c3c(c(O)c1C2=O)C[C@@](O)(C(=O)CO)C[C@@H]3O[C@H]1C[C@H](N)[C@H](O[C@@H]2CCCCO2)[C@H](C)O1 [Pirarubicin]	-39±8%	-68±19%		0.69 µM	53%	0.03 µM	0.6 ± 0.46 µM	
O=C1c2ccccc2C(=O)c2cc(O)ccc21 [Compound 2-Hydroxyanthraquinone]	-68±21%	-124±4%	3.31 ± 1.38 µM	7.08 µM	120%	17.3 ± 6.83 µM		
Oc1c(Cl)c(Cl)c(Cl)c(Cl)c1Cl [Pentachlorophenol]	-119±31%	-97±20%		8.9 µM	99%	4.17 ± 0.75 µM	3.09 ± 0.6 µM	
Oc1ccc(Oc2ccccc2)cc1 [Compound 4-Phenoxyphenol]	inactive	-106±22%	28 ± 10.6 µM	47.6 µM	104%			inactive
CCCCOC(=O)c1ccc(O)cc1 [Butylparaben]	inactive	-109±15%	19 µM	35.5 µM	124%			inactive
CC1(C)[C@H](C(=O)O[C@H](C#N)c2cccc(Oc3ccccc3)c2)[C@@H]1/C=C(\Cl)C(F)(F)F [lambda-Cyhalothrin]	-56±14%	-68±22%		15.8 µM	58%	28.2 µM	24.4 ± 1.59 µM	
CO/N=C(/C1=NOCCO1)c1ccccc1Oc1ncnc(Oc2ccccc2Cl)c1F [Fluoxastrobin]	-105±24%	-81±29%		11.2 µM	72%	37.9 ± 19.3 µM	45.8 ± 15 µM	
CCC(C)c1ccccc1O (centres unmarked) [2-(Butan-2-yl)phenol]	inactive	-82±8%	49.5 ± 9.45 µM	25.1 µM	32%			inactive
COC(=O)[C@]12CCC(C)(C)C[C@H]1[C@H]1C(=O)C=C3[C@@]4(C)C=C(C#N)C(=O)C(C)(C)[C@@H]4CC[C@@]3(C)[C@]1(C)CC2 [Bardoxolone methyl]	-90±57%	-114±5%	5.11 ± 1.27 µM	17.3 µM	122%	17.4 ± 2 µM		
COP(=S)(OC)Oc1cc(Cl)c(Cl)cc1Cl [Fenchlorphos]	-96±29%	-97±9%	13.6 ± 2.52 µM	6.15 µM	99%	20.6 ± 1.68 µM		
Nc1ccc(-c2ccc(N)cc2)cc1 [Benzidine]	-69±64%	-59±14%	24.3 ± 4.5 µM	15.8 µM	79%	2.51 ± 3.54 µM		
OC1(c2ccc(Cl)c(C(F)(F)F)c2)CCN(CCCC(c2ccc(F)cc2)c2ccc(F)cc2)CC1 [Penfluridol]	-64±25%	-88±15%		27.5 µM	68%	23.2 ± 6.57 µM	33.5 µM	
Clc1ccccc1-c1ccccc1Cl [2,2'-Dichlorobiphenyl]	inactive	-71±13%	31.1 ± 12.3 µM	63.1 µM	76%			inactive
C[C@]12O[C@H](C[C@]1(O)CO)n1c3ccccc3c3c4c(c5c6ccccc6n2c5c31)CNC4=O [lestaurtinib]	-92±26%	-84±9%		5.62 µM	100%	12.8 ± 2.67 µM	4.8 ± 0.97 µM	
NC(=O)N1C(=O)/C(=C(\O)c2cccs2)c2cc(Cl)ccc21 [Tenidap]	-96±13%	-111±5%		15.8 µM	102%	21.1 ± 7.88 µM	12.5 ± 1.19 µM	
Oc1c(Cl)c(Cl)cc(Cl)c1Cl [2,3,5,6-Tetrachlorophenol]	-77±36%	-94±3%	6.42 ± 2.38 µM	8.91 µM	92%	9.2 ± 2.96 µM		
S=C=Nc1ccccc1 [Phenyl isothiocyanate]	inactive	-103±16%		35.5 µM	134%		43 ± 14.8 µM	inactive
COC(=O)Nc1cccc(OC(=O)Nc2cccc(C)c2)c1 [Phenmedipham]	-95±20%	-101±10%		7.08 µM	107%	19.4 ± 9.11 µM	4.41 ± 2.02 µM	
O=C(O)Cc1sc(-c2ccccc2)nc1-c1ccc(Cl)cc1 [Fentiazac]	-88±22%	-91±18%	27.4 ± 2.92 µM	19.4 µM	57%	9.49 ± 7.98 µM		
O=[N+]([O-])c1c2ccccc2cc2ccccc12 [Compound 9-Nitroanthracene]	-74±29%	-87±19%	21.4 ± 12.8 µM	35.5 µM	88%	33 ± 4.21 µM		
C[C@@]12C(=O)OC(=O)[C@]1(C)[C@H]1CC[C@@H]2O1 [Cantharidin]	-91±63%	-67±9%	0.15 ± 0.08 µM	0.12 µM	98%	0.45 ± 0.3 µM		
C/C=C(/C(=C/C)c1ccc(O)cc1)c1ccc(O)cc1 [Dienestrol]	inactive	-98±10%	10.9 ± 1.88 µM	8.3 µM	84%			inactive
C[C@]12CC[C@H]3C(=CCc4cc(O)ccc43)[C@@H]1CCC2=O [Equilin]	-47±10%	-97±4%	24.3 ± 4.6 µM	31.6 µM	126%	39.1 ± 15.5 µM		
